How the values were obtained:
IFN-γ and IL-6 = assay: Splenocyte cytokine production (ELISA); format: cell-based, mouse; conditions: 10 μM, 3 day incubation, culture supernatant
Description: Male Skh-1:HR1 (hairless) mice, approximately six weeks old were killed by cervical dislocation. Single cell suspensions were made from the spleen and erythrocytes were lysed in buffer (0.14M NH4Cl, 17 mM Tris, pH 7.2). The remaining splenocytes were cultured in RPMI-1640 (Gibco) supplemented with 10% (v:v) FBS, 200 mM L-glutamine, penicillin/streptomycin and […] 2-mercaptoethanol. Splenocytes were added to quadruplicate wells containing either concanavalin A (ConA, Sigma-Aldrich—0.4 μg/well), LPS (Sigma-Aldrich—1 μg/well) or no mitogen, as well 10 μM of test compound in DMSO. Samples were analysed after a 3 day incubation at 37° C. in 5% CO2 in air. Methylthiazoletetrazolium (MTT) is bioreduced by viable cells into a coloured formazan product that is soluble in DMSO. Thus the quantity of formazan product is directly proportional to the number of living cells in culture, and can be measured using a spectrophotometer at 570 nm. MTT was added to each well, incubated for a further 4 hrs and then colour developed with 0.04N HCl in isopropanol. Culture supernatants were stored after collection at −80° C. and both T and B cells analysed by ELISA (BD Biosciences) for IFN-γ (a Th-1 cytokine) and for T cells alone, IL-6 (a Th-2 cytokine).

PGE2 = PGE2 synthesis in RA-stimulated U937 cells; format: cell-based, human; conditions: A23187 0.5 μM, 30 min
Description: U937 cells were thawed and resuspended in RPMI and 10% FCS at 2×10^5 cells per ml. The cells were incubated in 5% CO2 at 37° C. and expanded in growing culture to at least 6.4×10^7 total cells. The cells were then resuspended in fresh medium and cultured with 5 μM retinoic acid (RA) at 2×10^5 cells per ml for a further 3 days (72 h). RA treated cells were washed 2× in serum-free RPMI and resuspended in serum-free medium at 5×10^6 cells per ml. The cells were aliquotted into Teflon tubes at 1 ml per tube. Working stock solutions of compounds (1) and (3) were prepared at 0.1 mM, 1 mM and 10 mM as described above. For each working dilution, 10 μl was added to 1 ml cells to achieve a final concentration of 0 (DMSO alone), 1, 10, and 100 μM for each test compound. Cells were incubated in triplicate with each concentration of test compound for 15 min at 37° C. After 15 min pre-incubation, each 1 ml tube of cells received 5 μl of a […] solution of the calcium ionophore A23187 (to achieve 0.5 μM A23187). Incubation at 37° C. was continued for a further 30 min. After incubation, supernatants were collected by centrifugation at 2000 rpm for 10 min and stored at −20° C. until required for assay.

[1] = test system: low density lipoprotein (LDL); assay: Cu2+-induced oxidation of LDL (FOX assay); format: biochemical; set-up: lipid peroxide formation: unit not given here
Description: Blood was collected by venipuncture and plasma separated by centrifugation. LDL was then isolated from plasma using a 4-step sodium chloride density gradient and ultracentrifuged at 200,000 g for 20 hours at 4° C. The collect LDL was purified by passage through gel filtration PD10 column to remove excess salt and EDTA, and stored in the dark at 4° C. to prevent auto-oxidation and used with two weeks of isolation. The LDL cholesterol content was measure using a standard enzymatic method and protein concentration determined by the Lowry method using BSA as the standard.
On the day of each experiment a 2 mL aliquot of LDL was passed through a second PD10 column and diluted with chelex treated PBS (100 mM) to give a standard protein concentration of 0.1 mg/mL, ie final concentration per reaction. Oxidation reactions were initiated by the addition of freshly prepared Cu^2+ solution, such that the final concentration of CuSO4 was 5 μM. […] The extent of lipoprotein oxidation was determined by measuring the formation of lipid-peroxides on aliquots removed every 30-minute over a 3-hour period. Peroxides were determined at each time point by the ferrous oxidation-xylenol orange (FOX) assay using standard hydrogen peroxide curve (5 to 200 μM). Compound (1) was examined in at least two separate experiments performed on separate days.

`O=C(O)C1CCCN1Cc1cc2c(cc1O)OCC(c1ccc(O)cc1)=C2` (centres unmarked) [Compound (3)] was tested, and the “Effect on cytokine synthesis (INF-γ, IL-6)” value (IFN-γ and IL-6) was “did decrease the cytokines produced by T cells in particular”, the “PGE2” value (PGE2; 1 μM) was 1.025 ± 0.114 pg and the “PGE2” value (PGE2; 10 μM) was 1.271 ± 0.212 pg. For the same compound, the “PGE2” value (PGE2; 100 μM) was 1.39 ± 0.227 pg, the lipid peroxide formation ([1]; Compound (3) 10 μM + Cu++ 5 μM, no LDL, 0 min) was 2.36 ± 5.25 and the lipid peroxide formation ([1]; Compound (3) 10 μM + Cu++ 5 μM, no LDL, 30 min) was −3.75 ± 3.02. The lipid peroxide formation ([1]; Compound (3) 10 μM + Cu++ 5 μM, no LDL, 60 min) was −1.38 ± 2.64, the lipid peroxide formation ([1]; Compound (3) 10 μM + Cu++ 5 μM, no LDL, 90 min) was −0.82 ± 2.31 and the lipid peroxide formation ([1]; Compound (3) 10 μM + Cu++ 5 μM, no LDL, 120 min) was −2.48 ± 2.55. It also gave a lipid peroxide formation ([1]; Compound (3) 10 μM + Cu++ 5 μM, no LDL, 150 min) of −6.22 ± 6.83, an IC50 ([1]; LDL 0.1 mg/mL, CuSO4 5 μM, read-out: IC50, concentration at which 50% of the LDL oxidation was inhibited) of 500 nM and a lipid peroxide formation ([1]; LDL 0.1 mg/ml + compound (3) 0.01 μM + Cu++ 5 μM, 0 min) of 5.55 ± 0.22. It also gave a lipid peroxide formation ([1]; LDL 0.1 mg/ml + compound (3) 0.01 μM + Cu++ 5 μM, 30 min) of 2.85 ± 2.80, a lipid peroxide formation ([1]; LDL 0.1 mg/ml + compound (3) 0.01 μM + Cu++ 5 μM, 60 min) of 25.92 ± 13.53 and a lipid peroxide formation ([1]; LDL 0.1 mg/ml + compound (3) 0.01 μM + Cu++ 5 μM, 90 min) of 88.97 ± 3.03. The lipid peroxide formation ([1]; LDL 0.1 mg/ml + compound (3) 0.01 μM + Cu++ 5 μM, 120 min) was 131.94 ± 4.81, the lipid peroxide formation ([1]; LDL 0.1 mg/ml + compound (3) 0.01 μM + Cu++ 5 μM, 150 min) was 137.86 ± 26.03 and the lipid peroxide formation ([1]; LDL 0.1 mg/ml + compound (3) 0.1 μM + Cu++ 5 μM, 0 min) was 5.62 ± 0.85. The lipid peroxide formation ([1]; LDL 0.1 mg/ml + compound (3) 0.1 μM + Cu++ 5 μM, 30 min) was 3.24 ± 1.93, the lipid peroxide formation ([1]; LDL 0.1 mg/ml + compound (3) 0.1 μM + Cu++ 5 μM, 60 min) was 18.89 ± 7.84 and the lipid peroxide formation ([1]; LDL 0.1 mg/ml + compound (3) 0.1 μM + Cu++ 5 μM, 90 min) was 73.79 ± 1.40. For the same compound, the lipid peroxide formation ([1]; LDL 0.1 mg/ml + compound (3) 0.1 μM + Cu++ 5 μM, 120 min) was 138.28 ± 2.75, the lipid peroxide formation ([1]; LDL 0.1 mg/ml + compound (3) 0.1 μM + Cu++ 5 μM, 150 min) was 155.66 ± 21.85 and the lipid peroxide formation ([1]; LDL 0.1 mg/ml + compound (3) 1.0 μM + Cu++ 5 μM, 0 min) was 7.38 ± 2.69. The lipid peroxide formation ([1]; LDL 0.1 mg/ml + compound (3) 1.0 μM + Cu++ 5 μM, 30 min) was −2.09 ± 9.59, the lipid peroxide formation ([1]; LDL 0.1 mg/ml + compound (3) 1.0 μM + Cu++ 5 μM, 60 min) was 7.21 ± 4.53 and the lipid peroxide formation ([1]; LDL 0.1 mg/ml + compound (3) 1.0 μM + Cu++ 5 μM, 90 min) was 7.13 ± 3.76. For the same compound, the lipid peroxide formation ([1]; LDL 0.1 mg/ml + compound (3) 1.0 μM + Cu++ 5 μM, 120 min) was 11.69 ± 7.30, the lipid peroxide formation ([1]; LDL 0.1 mg/ml + compound (3) 1.0 μM + Cu++ 5 μM, 150 min) was 79.63 ± 27.82 and the lipid peroxide formation ([1]; LDL 0.1 mg/ml + compound (3) 10 μM + Cu++ 5 μM, 0 min) was 1.62 ± 4.14. It also gave a lipid peroxide formation ([1]; LDL 0.1 mg/ml + compound (3) 10 μM + Cu++ 5 μM, 30 min) of 2.59 ± 2.96, a lipid peroxide formation ([1]; LDL 0.1 mg/ml + compound (3) 10 μM + Cu++ 5 μM, 60 min) of 5.65 ± 2.55 and a lipid peroxide formation ([1]; LDL 0.1 mg/ml + compound (3) 10 μM + Cu++ 5 μM, 90 min) of 4.40 ± 1.13. It also gave a lipid peroxide formation ([1]; LDL 0.1 mg/ml + compound (3) 10 μM + Cu++ 5 μM, 120 min) of 3.57 ± 2.23 and a lipid peroxide formation ([1]; LDL 0.1 mg/ml + compound (3) 10 μM + Cu++ 5 μM, 150 min) of 4.15 ± 2.87.

From patent US20120003270A1, “6-SUBSTITUTED ISOFLAVONOID COMPOUNDS AND USES THEREOF” (priority 2008, published 2012)
